Literature values, collected in patent US9808468B2, “Formulation of meloxicam” (ICEUTICA PTY LTD., priority 2014, dated 2017).

solubility in water: practically insoluble
SMILES: Cc1cnc(NC(=O)C2=C(O)c3ccccc3S(=O)(=O)N2C)s1 [Meloxicam, 4-hydroxy-2-methyl-N-(5-methyl-2-thiazolyl)-2H-1,2-benzothiazine-3-carboxamide-1,1-dioxide]
